The text below walks through data of patent US20160045463A1, “USE OF METALLOPROTEASE INHIBITORS IN THE TREATMENT OF POLYCYSTIC LIVER DISEASES” (UNIVERSIDAD DE SALAMANCA, priority 2012, published 2016).

Molecules are shown by their SMILES.

The test system of data set [1] is polycystic human cholangiocytes. Description: Metalloproteolytic activity of culture supernatants, ES001 fluorogenic peptide cleavage. Format: cell-based. To be noted: polycystic cholangiocytes; 13-cis-retinoic acid 10 μM/ml or Marimastat 200 μM/ml; p<0.01; FIG. 21. As for the experimental part:
(§1) Metalloproteolytic or metalloprotease activity was measured in supernatants of cultures of normal human cholangiocytes and polycystic human cholangiocytes by an assay based on the cleavage of the ES001 fluorogenic synthetic peptide (R&D Systems Minneapolis, Minn., USA) that emits fluorescence proportional to metalloproteolytic activity. The substrate Mca-Pro-Leu-Gly-Leu-Dpa-Ala-Arg-NH2 [Mca: (7-Methoxycoumarin-4-yl)acetyl, Dpa: N-3-(2,4-Dinitrophenyl)-L-2,3-diaminopropionyl] (Knight C G, et al. FEBS Letters 1992; 296:263) is lysed between glycine and leucine by the action of the MMPs, especially MMP-1 (collagenase 1), MMP-2 (gelatinase A), MMP-7 (matrilysin), MMP-8 (collagenase 2), MMP-9 (gelatinase B), MMP-12 (macrophage elastase), MMP-13 (collagenase 3), MMP-14 (MT1-MMP), MMP-15 (MT2-MMP) and MMP-16 (MT3-MMP).
(§2) The basal metalloproteolytic activity of normal human cholangiocyte and polycystic human cholangiocytes cultures was determined by trypsinising the contents of 250 ml flasks and counting the number of cells in an inverted optical microscope using a Neubauer camera and a ½ dilution of the cell solution with trypan blue (Sigma). Next, 300,000 cells were seeded in each well of a 6-well plate and incubated with enriched DMEM/F-12 medium for 24 hours. After this time, the cells were washed with PBS and the culture medium changed for 2 ml of quiescent medium (DMEM/F-12, 1% FBS and 1% P/S) and incubated for 6 hours at 37° C./5% CO2. The supernatant was collected from each well and centrifuged at 4° C. for 10 minutes at 1,500 rpm to remove the dead cells present in the supernatant. The supernatant was concentrated 50 times using a 15 kDa (Millipore) Amicon Ultra concentrator. Next the concentrated supernatant was incubated for 2 hours at 37° C. with the ES001 fluorogenic peptide at a final concentration of 10 μM. Also, GM6001 (a global MMP inhibitor) and aprotinin (a global inhibitor of serine proteases) (both from Sigma-Aldrich) were used as controls of the specificity of the analysis of MMP activity in the assay. Recombinant MMP-10 (kindly provided by Dr. José Antonio Rodriguez Garcia, Laboratorio de Ateroesclerosis e Inflamación del CIMA, Universidad de Navarra) was used as a positive control and DMEM/F-12 medium without serum was used as the negative control. The fluorescence determination was kinetically measured in a Spectra MAX GeminiXS (Molecular Devices Sunnyvale, Calif., USA) spectrophotometer at excitation-emission wavelengths of 320-405 nm. The fluorescence intensity emitted by the culture medium was extracted from the metalloproteolytic activity values. The metalloproteolytic activity was calculated from the tangent to the curve of the fluorescence values using at least six different points over time for each type of cell and condition.
(§3) To analyse the effect of various stimuli on the metalloproteolytic activity of normal and polycystic human cholangiocytes cultures, a protocol similar to that described before in Example 2 was followed, but in this case the incubation of the cells was with quiescent medium (i.e. DMEM/F12, […]) in the presence of the corresponding stimulus (Table 3). Next, the same procedure as described for the analysis of basal metalloproteolytic activity was followed as described in Example 2.
(§4) Taking into account that: i) basal activity of polycystic human cholangiocytes in culture is greater than that of normal human cholangiocytes and ii) that IL-6 and IL-8 increased the metalloproteolytic activity of normal and polycystic human cholangiocytes, the role of these two cytokines on metalloproteolytic hyperactivity of polycystic human cholangiocytes using antibodies against the receptors of IL-6 (IL6R) and/or IL-8 (CXCR1) was investigated. […]

Data set [2] deals with normal human cholangiocytes. The data set is described as above. Format: cell-based. To be noted: normal cholangiocytes; 13-cis-retinoic acid 10 μM/ml or Marimastat 200 μM/ml; p<0.01; FIG. 21. As for the experimental part: as §1, §2, §3, §4
For data set [3] the following is noted: 0.2856 mg/kg/day; patients with colorectal cancer; cited from earlier work.

Consider `CNC(=O)[C@@H](NC(=O)[C@H](CC(C)C)[C@H](O)C(=O)NO)C(C)(C)C` [Marimastat, N-[2,2-dimethyl-1-(methylcarbamoyl)propyl]-2-[hydroxy-(hydroxycarbamoyl)methyl]-4-methyl-pentanamide], for which the “basal metalloproteolytic activity in presence of inhibitor” value in data set [1] and in data set [2] was “inhibited” throughout. Further, the “toxicity at dose used in clinical trials” value in data set [3] is given as “does not cause toxicity”.
